Converted amounts (≈) assume the structure as drawn.
Legend:
Assay in all cases: ≥ marks a high value that may be exact or a test limit, other limits are often not marked, values filed in µg/mL are converted to µM
[1] = system: Candida albicans ATCC 2002
[2] = system: Pseudomonas aeruginosa PAO1
[3] = system: Pseudomonas aeruginosa ATCC 27853
Bacillus subtilis = system: Bacillus subtilis
[4] = system: Staphylococcus aureus ATCC 2592
[5] = system: Staphylococcus aureus ATCC 43300
Escherichia coli ML-35p = system: Escherichia coli ML-35p
[6] = system: Staphylococcus aureus ATCC 25923
Escherichia coli K-12 = system: Escherichia coli K-12
[7] = system: Staphylococcus aureus USA 300
Bacillus subtilis 168 = system: Bacillus subtilis 168
[8] = system: Pseudomonas aeruginosa ATCC 9027
[9] = system: Escherichia coli ATCC 25922
[10] = system: Staphylococcus aureus ATCC BAA-1556

CSCC[C@H](NC(=O)[C@H](CO)NC(=O)[C@H](CO)NC(=O)[C@H](CC(C)C)NC(=O)[C@H](C)NC(=O)CNC(=O)[C@H](Cc1ccccc1)NC(=O)[C@H](CC(C)C)NC(=O)[C@H](CC(C)C)NC(=O)[C@@H]1CCCN1C(=O)[C@H](Cc1ccccc1)NC(=O)[C@@H](N)Cc1ccccc1)C(=O)N[C@@H](CCSC)C(=O)N1CCC[C@H]1C(=O)N[C@@H](CCCCN)C(=O)N[C@@H](CC(C)C)C(=O)N[C@@H](Cc1ccccc1)C(N)=O [FFPLLFGALSSMMPKLF]
MIC [1]: 2.57 µM (≈ 5 µg/mL) | MIC [2]: 1.28 µM (≈ 2.5 µg/mL) | MIC [3]: 1.28 µM (≈ 2.5 µg/mL) | MIC (Bacillus subtilis): 7.71 µM (≈ 15 µg/mL) | MIC [4]: 1.28 µM (≈ 2.5 µg/mL) | MIC [5]: 1.28 µM (≈ 2.5 µg/mL) | MIC (Escherichia coli ML-35p): 15.4 µM (≈ 30 µg/mL)

CC[C@H](C)[C@H](NC(=O)CNC(=O)[C@@H](NC(=O)[C@H](C)NC(=O)[C@@H](NC(=O)[C@H](CCCCN)NC(=O)[C@@H](NC(=O)[C@@H](NC(=O)[C@@H]1CCCN1C(=O)CNC(=O)[C@H](CC(C)C)NC(=O)[C@@H](N)Cc1ccccc1)[C@@H](C)CC)[C@@H](C)CC)[C@@H](C)CC)[C@@H](C)O)C(=O)N[C@@H](CC(C)C)C(=O)N1CCC[C@H]1C(=O)N[C@H](C(=O)N[C@@H](C)C(=O)N[C@H](C(=O)N[C@H]1CSSC[C@@H](C(=O)O)NC(=O)[C@H](CCCCN)NC(=O)[C@H](CCCCN)NC(=O)[C@H](CC(C)C)NC(=O)[C@H](Cc2ccccc2)NC(=O)[C@H](CCCCN)NC1=O)[C@@H](C)CC)[C@@H](C)O [FLGPIIKIATGILPTAICKFLKKC]
MIC [1]: 1.81 µM (≈ 4.69 µg/mL) | MIC (Bacillus subtilis): 1.81 µM (≈ 4.69 µg/mL) | MIC [5]: 24.1 µM (≈ 62.5 µg/mL) | MIC [6]: 1.45 µM (≈ 3.75 µg/mL) | MIC (Escherichia coli ML-35p): 14.5 µM (≈ 37.5 µg/mL)

CC[C@H](C)[C@H](NC(=O)[C@H](CC(C)C)NC(=O)[C@H](C)NC(=O)[C@@H]1CCCN1C(=O)[C@H](CCCN=C(N)N)NC(=O)[C@@H](N)Cc1ccccc1)C(=O)N[C@H](C(=O)N[C@@H](CCCN=C(N)N)C(=O)N[C@H](C(=O)N[C@@H](CCCCN)C(=O)NCC(=O)N[C@H](C(=O)N[C@@H](CCCN=C(N)N)C(=O)N[C@@H](CC(C)C)C(=O)O)[C@@H](C)O)[C@@H](C)O)C(C)C [FRPALIVRTKGTRL]
MIC (Escherichia coli K-12): 30 µM (≈ 48.8 µg/mL) | MIC [7]: 30 µM (≈ 48.8 µg/mL)

CC[C@H](C)[C@H](NC(=O)[C@H](CCCN=C(N)N)NC(=O)[C@H](CCC(N)=O)NC(=O)[C@@H](NC(=O)[C@@H](NC(=O)[C@H](CCCN=C(N)N)NC(=O)[C@H](CCCCN)NC(=O)[C@H](Cc1ccccc1)NC(=O)CN)[C@@H](C)CC)C(C)C)C(=O)N[C@@H](C)C(=O)N[C@@H](CC(=O)O)C(=O)N[C@@H](Cc1ccccc1)C(=O)N[C@@H](CC(C)C)C(=O)N[C@@H](CCCN=C(N)N)C(=O)N[C@@H](CC(N)=O)C(=O)N[C@@H](CC(C)C)C(=O)N[C@H](C(N)=O)C(C)C [GFKRIVQRIADFLRNLV]
MIC (Escherichia coli K-12): ≥ 60 µM | MIC [7]: 7.5 µM (≈ 15.3 µg/mL)

CC[C@H](C)[C@H](NC(=O)[C@H](CCCCN)NC(=O)[C@H](CCCN=C(N)N)NC(=O)CNC(=O)[C@H](CC(C)C)NC(=O)[C@H](CO)NC(=O)[C@H](CCCN=C(N)N)NC(=O)[C@H](CC(C)C)NC(=O)CNC(=O)CN)C(=O)N[C@@H](CC(C)C)C(=O)N[C@@H](CCCN=C(N)N)C(=O)N[C@@H](C)C(=O)N[C@@H](Cc1c[nH]c2ccccc12)C(=O)N[C@@H](CCCCN)C(=O)N[C@@H](CCCCN)C(=O)N[C@@H](Cc1ccc(O)cc1)C(=O)NCC(=O)O [GGLRSLGRKILRAWKKYG]
MIC (Bacillus subtilis 168): 8 µM (≈ 16.5 µg/mL) | MIC (Escherichia coli K-12): 2 µM (≈ 4.12 µg/mL)

CC[C@H](C)[C@H](NC(=O)CNC(=O)[C@@H]1CCCN1C(=O)CNC(=O)[C@H](CC(C)C)NC(=O)[C@H](CC(N)=O)NC(=O)[C@H](C)NC(=O)[C@H](Cc1ccccc1)NC(=O)[C@H](CC(N)=O)NC(=O)[C@H](C)NC(=O)[C@H](CCCN=C(N)N)NC(=O)[C@H](Cc1ccccc1)NC(=O)[C@H](C)NC(=O)[C@@H](NC(=O)[C@H](CCCN=C(N)N)NC(=O)[C@H](Cc1c[nH]c2ccccc12)NC(=O)[C@H](Cc1ccc(O)cc1)NC(=O)[C@H](CC(=O)O)NC(=O)[C@H](C)NC(=O)[C@H](CC(C)C)NC(=O)CN)[C@@H](C)O)C(=O)N[C@@H](CCCN=C(N)N)C(=O)N[C@H]1CSSC[C@@H](C(=O)O)NC(=O)[C@H](CCCN=C(N)N)NC(=O)[C@H](C)NC(=O)[C@H](CO)NC(=O)[C@H](CCCCN)NC1=O [GLADYWRTAFRANFANLGPGIRCKSARC]
MIC [1]: ≥ 32 µM | MIC [8]: 6 µM (≈ 18.7 µg/mL) | MIC [4]: 1 µM (≈ 3.11 µg/mL) | MIC [9]: 2 µM (≈ 6.23 µg/mL)

CC[C@H](C)[C@H](NC(=O)[C@H](C)NC(=O)[C@@H]1CCCN1C(=O)[C@@H](NC(=O)[C@@H](NC(=O)[C@H](Cc1cnc[nH]1)NC(=O)[C@H](CO)NC(=O)[C@@H](NC(=O)[C@@H](NC(=O)[C@H](CO)NC(=O)CNC(=O)[C@H](CC(C)C)NC(=O)[C@H](CC(C)C)NC(=O)CNC(=O)[C@H](CC(C)C)NC(=O)[C@H](CC(C)C)NC(=O)CN)C(C)C)C(C)C)C(C)C)C(C)C)C(=O)N[C@H](C(=O)NCC(=O)N[C@@H](Cc1cnc[nH]1)C(=O)N[C@@H](Cc1ccccc1)C(N)=O)C(C)C [GLLGLLGSVVSHVVPAIVGHF]
MIC [2]: > 100 µM | MIC (Bacillus subtilis 168): 25 µM (≈ 51.8 µg/mL) | MIC (Escherichia coli K-12): ≥ 100 µM | MIC [7]: 6.2 µM (≈ 12.8 µg/mL)

CC[C@H](C)[C@H](NC(=O)[C@H](Cc1c[nH]c2ccccc12)NC(=O)[C@H](CCCN=C(N)N)NC(=O)[C@H](CCCN=C(N)N)NC(=O)[C@H](Cc1c[nH]c2ccccc12)NC(=O)[C@@H](N)CCCCN)C(=O)N[C@@H](CCCN=C(N)N)C(=O)N[C@@H](CC(C)C)C(=O)N[C@@H](CC(C)C)C(N)=O [KWRRWIRLL]
MIC [10]: 25 µM (≈ 33.1 µg/mL)

CC(C)C[C@H](NC(=O)[C@H](CC(C)C)NC(=O)[C@H](CCCCN)NC(=O)[C@H](CC(C)C)NC(=O)[C@H](CC(C)C)NC(=O)[C@H](CC(C)C)NC(=O)[C@H](CC(C)C)NC(=O)[C@H](CCCCN)NC(=O)[C@@H](N)CC(C)C)C(N)=O [LKLLLLKLL]
MIC [10]: ≥ 100 µM

CC(C)C[C@H](NC(=O)[C@H](CC(C)C)NC(=O)[C@H](CC(C)C)NC(=O)[C@H](CC(C)C)NC(=O)[C@H](CCCCN)NC(=O)[C@H](CC(C)C)NC(=O)[C@H](CCCCN)NC(=O)[C@H](CC(C)C)NC(=O)[C@@H](N)CC(C)C)C(N)=O [LLKLKLLLL]
MIC [10]: ≥ 100 µM

CC(C)C[C@H](NC(=O)[C@H](CC(C)C)NC(=O)[C@H](CC(C)C)NC(=O)[C@H](CCCCN)NC(=O)[C@H](CCCCN)NC(=O)[C@H](CC(C)C)NC(=O)[C@H](CC(C)C)NC(=O)[C@H](CC(C)C)NC(=O)[C@@H](N)CC(C)C)C(N)=O [LLLLKKLLL]
MIC [10]: ≥ 100 µM

CC(C)C[C@H](NC(=O)[C@H](Cc1c[nH]c2ccccc12)NC(=O)[C@H](Cc1c[nH]c2ccccc12)NC(=O)[C@H](CC(C)C)NC(=O)[C@H](CCCN=C(N)N)NC(=O)[C@H](Cc1c[nH]c2ccccc12)NC(=O)[C@@H](N)CC(C)C)C(=O)N[C@@H](Cc1c[nH]c2ccccc12)C(=O)N[C@@H](Cc1c[nH]c2ccccc12)C(N)=O [LWRLWWLWW]
MIC [10]: 3.12 µM (≈ 4.51 µg/mL)

CC[C@H](C)[C@H](NC(=O)[C@H](CCCCN)NC(=O)[C@H](CC(=O)O)NC(=O)[C@H](CC(C)C)NC(=O)[C@@H](NC(=O)[C@H](CC(N)=O)NC(=O)[C@H](CCC(N)=O)NC(=O)[C@@H](NC(=O)[C@H](Cc1ccccc1)NC(=O)CNC(=O)[C@H](CCCCN)NC(=O)CNC(=O)[C@H](C)NC(=O)[C@H](CC(N)=O)NC(=O)[C@H](CCCCN)NC(=O)[C@@H](NC(=O)[C@@H](NC(=O)[C@H](CCC(=O)O)NC(=O)[C@H](Cc1c[nH]c2ccccc12)NC(=O)[C@H](CC(C)C)NC(=O)[C@@H](N)CO)[C@@H](C)O)[C@@H](C)CC)[C@@H](C)CC)[C@@H](C)CC)C(=O)N[C@@H](CCCN=C(N)N)C(=O)O [SLWETIKNAGKGFIQNILDKIR]
MIC [1]: 12.9 µM (≈ 32.7 µg/mL) | MIC (Bacillus subtilis): 8.6 µM (≈ 21.9 µg/mL) | MIC [6]: 3.69 µM (≈ 9.38 µg/mL) | MIC (Escherichia coli ML-35p): 14.7 µM (≈ 37.5 µg/mL)

CC(C)C[C@H](NC(=O)[C@H](Cc1c[nH]c2ccccc12)NC(=O)[C@H](CCCN=C(N)N)NC(=O)[C@H](CC(C)C)NC(=O)[C@H](Cc1c[nH]c2ccccc12)NC(=O)[C@H](CC(C)C)NC(=O)[C@H](CC(C)C)NC(=O)[C@H](Cc1c[nH]c2ccccc12)NC(=O)[C@@H](N)Cc1c[nH]c2ccccc12)C(N)=O [WWLLWLRWL]
MIC [10]: 3.12 µM (≈ 4.28 µg/mL)

CC(C)C[C@H](NC(=O)[C@H](Cc1c[nH]c2ccccc12)NC(=O)[C@H](CC(C)C)NC(=O)[C@H](CC(C)C)NC(=O)[C@H](Cc1c[nH]c2ccccc12)NC(=O)[C@H](Cc1c[nH]c2ccccc12)NC(=O)[C@H](CC(C)C)NC(=O)[C@H](Cc1c[nH]c2ccccc12)NC(=O)[C@@H](N)Cc1c[nH]c2ccccc12)C(N)=O [WWLWWLLWL]
MIC [10]: ≥ 100 µM

CC(C)C[C@H](NC(=O)[C@H](Cc1c[nH]c2ccccc12)NC(=O)[C@H](Cc1c[nH]c2ccccc12)NC(=O)[C@H](CC(C)C)NC(=O)[C@H](Cc1c[nH]c2ccccc12)NC(=O)[C@H](Cc1c[nH]c2ccccc12)NC(=O)[C@H](CCCN=C(N)N)NC(=O)[C@H](Cc1c[nH]c2ccccc12)NC(=O)[C@@H](N)Cc1c[nH]c2ccccc12)C(N)=O [WWRWWLWWL]
MIC [10]: 3.12 µM (≈ 4.74 µg/mL)

From DBAASP
